Data taken from patent publication US20030216416A1, “Novel crystalline of n-[4-[2-(2-amino-4,7-dihydro-4oxo-3h-pyrrolo[2,3-d]pyrimidin-5-yl)ethyl]benzoyl]-l-glutamic acid and process therefor” (priority 2002, published 2003).
Values belong to the compound of their own block, whether it stands above or below them.

Legend:
[1] = Stability study: total related substances of crystalline form lots on storage
[2] = Stability study: solvents (water) content of crystalline form lots on storage
[3] = heptahydrate lot stored at 5° C.
[4] = heptahydrate lot, 25° C./60% relative humidity and room temperature/uncontrolled humidity
[5] = 2.5 hydrate lots stored at 5° C.
[6] = accelerated conditions 30° C., 0 months
[7] = accelerated conditions 30° C., 1 month
[8] = accelerated conditions 30° C., 2 months
[9] = accelerated conditions 30° C., 3 months
[10] = accelerated conditions 30° C., 6 months
[11] = stored at 5° C., 0 months, lots A-C water and ethanol, lot D water only
[12] = accelerated conditions 25° C., 60% relative humidity

SMILES: Nc1nc2[nH]cc(CCc3ccc(C(=O)N[C@@H](CCC(=O)[O-])C(=O)[O-])cc3)c2c(=O)[nH]1.[Na+].[Na+] [Heptahydrate Lot, disodium N-[4-[2-(2-amino-4,7-dihydro-4-oxo-3H-pyrrolo[2,3-d]-pyrimidin-5-yl)ethyl]benzoyl]-L-glutamic acid salt]
Total Related Substances Results ([1]; 5 C., 0 mo.): 0.41%
Total Related Substances Results ([1]; 5 C., 0.5 mo.): 0.42%
Total Related Substances Results ([1]; 5 C., 1 mo.): 0.43%
Total Related Substances Results ([1]; 5 C., 2 mo.): 0.45%
Total Related Substances Results ([1]; 5 C., 3 mo.): 0.42%
Total Related Substances Results ([1]; 5 C., 6 mo.): 0.42%
Total Related Substances Results ([1]; 5 C., 9 mo.): 0.40%
Total Related Substances Results ([1]; 5 C., 12 mo.): 0.42%
Total Related Substances Results ([1]; 25 C./60% RH, 0 mo.): 0.41%
Total Related Substances Results ([1]; 25 C./60% RH, 0.25 mo.): 0.40%
Total Related Substances Results ([1]; 25 C./60% RH, 0.5 mo.): 0.44%
Total Related Substances Results ([1]; 25 C./60% RH, 0.75 mo.): 0.39%
Total Related Substances Results ([1]; 25 C./60% RH, 1 mo.): 0.43%
Total Related Substances Results ([1]; 25 C./60% RH, 3 mo.): 0.42%
Total Related Substances Results ([1]; 25 C./60% RH, 6 mo.): 0.42%
Total Related Substances Results ([1]; 25 C./60% RH, 12 mo.): 0.39%
Total Related Substances Results ([1]; RT/uncontrolled, 0 mo.): 0.41%
Total Related Substances Results ([1]; RT/uncontrolled, 0.25 mo.): 0.40%
Total Related Substances Results ([1]; RT/uncontrolled, 0.5 mo.): 0.43%
Total Related Substances Results ([1]; RT/uncontrolled, 0.75 mo.): 0.41%
Total Related Substances Results ([1]; RT/uncontrolled, 1 mo.): 0.43%
Total Related Substances Results ([1]; RT/uncontrolled, 2 mo.): 0.44%
Total Related Substances Results ([1]; RT/uncontrolled, 3 mo.): 0.42%
change in the percent total related substances over time [1, 3]: did not change significantly over time
change in the percent total related substances over time ([1]; heptahydrate lot stored at accelerated conditions): did not change significantly over time
Solvents (Water) Results ([2]; 5° C., time 0): 21.0%
Solvents (Water) Results ([2]; 5° C., time 0.5): 21.0%
Solvents (Water) Results ([2]; 5° C., time 1): 20.6%
Solvents (Water) Results ([2]; 5° C., time 2): 21.1%
Solvents (Water) Results ([2]; 5° C., time 3): 21.3%
Solvents (Water) Results ([2]; 5° C., time 6): 21.1%
Solvents (Water) Results ([2]; 5° C., time 9): 21.1%
Solvents (Water) Results ([2]; 5° C., time 12): 21.9%
Solvents (Water) Results ([2]; 25° C./60% RH, time 0): 21.0%
Solvents (Water) Results ([2]; 25° C./60% RH, time 0.25): 21.1%
Solvents (Water) Results ([2]; 25° C./60% RH, time 0.5): 21.1%
Solvents (Water) Results ([2]; 25° C./60% RH, time 0.75): 20.1%
Solvents (Water) Results ([2]; 25° C./60% RH, time 1): 20.1%
Solvents (Water) Results ([2]; 25° C./60% RH, time 3): 20.7%
Solvents (Water) Results ([2]; 25° C./60% RH, time 6): 21.3%
Solvents (Water) Results ([2]; 25° C./60% RH, time 12): 21.7%
Solvents (Water) Results ([2]; RT/uncontrolled RH, time 0): 21.0%
Solvents (Water) Results ([2]; RT/uncontrolled RH, time 0.25): 21.3%
Solvents (Water) Results ([2]; RT/uncontrolled RH, time 0.5): 20.8%
Solvents (Water) Results ([2]; RT/uncontrolled RH, time 0.75): 20.6%
Solvents (Water) Results ([2]; RT/uncontrolled RH, time 1): 20.6%
Solvents (Water) Results ([2]; RT/uncontrolled RH, time 2): 21.1%
Solvents (Water) Results ([2]; RT/uncontrolled RH, time 3): 21.1%
change in water content over time [2, 3]: does not change significantly over time
water content [2, 3]: approximately 21%
change in water content over time [2, 4]: does not change significantly over time
water content [2, 4]: approximately 21%

SMILES: Nc1nc2[nH]cc(CCc3ccc(C(=O)N[C@@H](CCC(=O)O)C(=O)O)cc3)c2c(=O)[nH]1 [Lot A, pemetrexed disodium]
change in the percent total related substances over time [1, 5]: did not change significantly over time
change in the percent total related substances over time ([1]; accelerated conditions 30° C.): did change significantly over time
Total Related Substances Results [1, 6]: 0.24% of Total
Total Related Substances Results [1, 7]: 0.35% of Total
Total Related Substances Results [1, 8]: 0.41% of Total
Total Related Substances Results [1, 9]: 0.6% of Total
Total Related Substances Results [1, 10]: 1.1% of Total
Total Related Substances Results ([1]; stored at 5° C., 0 months): 0.24% of Total
Total Related Substances Results ([1]; stored at 5° C., 3 months): 0.26% of Total
Total Related Substances Results ([1]; stored at 5° C., 6 months): 0.27% of Total
Total Related Substances Results ([1]; stored at 5° C., 12 months): 0.28% of Total
Total Related Substances Results ([1]; stored at 5° C., 18 months): 0.4% of Total
Total Related Substances Results ([1]; stored at 5° C., 24 months): 0.4% of Total
Solvents Results [2, 6]: 10.2% of Total
Solvents Results [2, 7]: 10.9% of Total
Solvents Results [2, 8]: 10.6% of Total
Solvents Results [2, 9]: 10.7% of Total
Solvents Results [2, 10]: 9.3% of Total
Solvents Results [2, 11]: 10.2% of Total
Solvents Results ([2]; stored at 5° C., 3 months): 22.0% of Total
Solvents Results ([2]; stored at 5° C., 6 months): 21.1% of Total
Solvents Results ([2]; stored at 5° C., 12 months): 21.5% of Total
Solvents Results ([2]; stored at 5° C., 18 months): 22.3% of Total
Solvents Results ([2]; stored at 5° C., 24 months): 21.1% of Total

Second part, led by results:

change in the percent total related substances over time [1, 5]: did not change significantly over time
change in the percent total related substances over time ([1]; accelerated conditions 30° C.): did change significantly over time
Total Related Substances Results [1, 6]: 0.4% of Total
Total Related Substances Results [1, 7]: 0.4% of Total
Total Related Substances Results [1, 8]: 0.7% of Total
Total Related Substances Results [1, 9]: 0.6% of Total
Total Related Substances Results [1, 10]: 1.2% of Total
Total Related Substances Results ([1]; stored at 5° C., 0 months): 0.4% of Total
Total Related Substances Results ([1]; stored at 5° C., 3 months): 0.3% of Total
Total Related Substances Results ([1]; stored at 5° C., 6 months): 0.5% of Total
Total Related Substances Results ([1]; stored at 5° C., 12 months): 0.4% of Total
Solvents Results [2, 6]: 11.0% of Total
Solvents Results [2, 7]: 15.5% of Total
Solvents Results [2, 8]: 12.9% of Total
Solvents Results [2, 9]: 11.5% of Total
Solvents Results [2, 10]: 11.2% of Total
Solvents Results [2, 11]: 11.0% of Total
Solvents Results ([2]; stored at 5° C., 3 months): 21.0% of Total
Solvents Results ([2]; stored at 5° C., 6 months): 21.1% of Total
Solvents Results ([2]; stored at 5° C., 12 months): 21.0% of Total
SMILES: Nc1nc2[nH]cc(CCc3ccc(C(=O)N[C@@H](CCC(=O)O)C(=O)O)cc3)c2c(=O)[nH]1 [Lot B, pemetrexed disodium]

change in the percent total related substances over time [1, 5]: did increase somewhat over time
change in the percent total related substances over time ([1]; accelerated conditions 30° C.): did change significantly over time
Total Related Substances Results [1, 6]: 0.38% of Total
Total Related Substances Results [1, 7]: 0.6% of Total
Total Related Substances Results [1, 8]: 0.76% of Total
Total Related Substances Results [1, 9]: 0.79% of Total
Total Related Substances Results [1, 10]: 1.33% of Total
Total Related Substances Results ([1]; stored at 5° C., 0 months): 0.38% of Total
Total Related Substances Results ([1]; stored at 5° C., 3 months): 0.79% of Total
Total Related Substances Results ([1]; stored at 5° C., 6 months): 0.79% of Total
Total Related Substances Results ([1]; stored at 5° C., 12 months): 0.51% of Total
Total Related Substances Results ([1]; stored at 5° C., 18 months): 0.43% of Total
Total Related Substances Results ([1]; stored at 5° C., 24 months): 0.44% of Total
Solvents Results [2, 6]: 8.8% of Total
Solvents Results [2, 7]: 20.6% of Total
Solvents Results [2, 8]: 19.3% of Total
Solvents Results [2, 9]: 17.2% of Total
Solvents Results [2, 10]: 8.9% of Total
Solvents Results [2, 11]: 8.8% of Total
Solvents Results ([2]; stored at 5° C., 3 months): 16.7% of Total
Solvents Results ([2]; stored at 5° C., 6 months): 8.8% of Total
Solvents Results ([2]; stored at 5° C., 12 months): 21.0% of Total
Solvents Results ([2]; stored at 5° C., 18 months): 20.8% of Total
Solvents Results ([2]; stored at 5° C., 24 months): 20.4% of Total
SMILES: Nc1nc2[nH]cc(CCc3ccc(C(=O)N[C@@H](CCC(=O)O)C(=O)O)cc3)c2c(=O)[nH]1 [Lot C, pemetrexed disodium]

change in the percent total related substances over time [1, 5]: did not change significantly over time
change in the percent total related substances over time [1, 12]: did not increase somewhat over time
Total Related Substances Results ([1]; accelerated conditions 25° C., 60% relative humidity, 0 months): 0.31% of Total
Total Related Substances Results ([1]; accelerated conditions 25° C., 60% relative humidity, 1 month): 0.31% of Total
Total Related Substances Results ([1]; accelerated conditions 25° C., 60% relative humidity, 2 months): 0.45% of Total
Total Related Substances Results ([1]; accelerated conditions 25° C., 60% relative humidity, 3 months): 0.40% of Total
Total Related Substances Results ([1]; accelerated conditions 25° C., 60% relative humidity, 6 months): 0.32% of Total
Total Related Substances Results ([1]; stored at 5° C., 0 months): 0.31% of Total
Total Related Substances Results ([1]; stored at 5° C., 3 months): 0.35% of Total
Total Related Substances Results ([1]; stored at 5° C., 6 months): 0.33% of Total
Total Related Substances Results ([1]; stored at 5° C., 9 months): 0.42% of Total
Total Related Substances Results ([1]; stored at 5° C., 12 months): 0.24% of Total
Solvents Results ([2]; accelerated conditions 25° C., 60% relative humidity, 0 months, water only): 8.5% of Total
Solvents Results ([2]; accelerated conditions 25° C., 60% relative humidity, 1 month, water only): 14.0% of Total
Solvents Results ([2]; accelerated conditions 25° C., 60% relative humidity, 2 months, water only): 20.5% of Total
Solvents Results ([2]; accelerated conditions 25° C., 60% relative humidity, 3 months, water only): 20.8% of Total
Solvents Results ([2]; accelerated conditions 25° C., 60% relative humidity, 6 months, water only): 21.2% of Total
Solvents Results [2, 11]: 8.5% of Total
Solvents Results ([2]; stored at 5° C., 3 months): 14.0% of Total
Solvents Results ([2]; stored at 5° C., 6 months): 18.2% of Total
Solvents Results ([2]; stored at 5° C., 9 months): 21.1% of Total
Solvents Results ([2]; stored at 5° C., 12 months): 21.7% of Total
SMILES: Nc1nc2[nH]cc(CCc3ccc(C(=O)N[C@@H](CCC(=O)O)C(=O)O)cc3)c2c(=O)[nH]1 [Lot D, pemetrexed disodium]
change in water content over time [2, 12]: shows an increase in water content to the heptahydrate form
